Laboratory results reported in US6630496B1, “Inhibitors of phospholipase enzymes” (Genetics Institute LLC, priority 1996, dated 2003).

Tests used:
cPLA2 [1] = molecular target: T1, cPLA2 (Homo sapiens, UniProt P47712); assay: Soluble substrate assay (LysoPC); format: biochemical; conditions: NA = inhibitory activity not detected; read-out: IC50 (μM) Lyso PC
T1 sequence (P47712 1-749): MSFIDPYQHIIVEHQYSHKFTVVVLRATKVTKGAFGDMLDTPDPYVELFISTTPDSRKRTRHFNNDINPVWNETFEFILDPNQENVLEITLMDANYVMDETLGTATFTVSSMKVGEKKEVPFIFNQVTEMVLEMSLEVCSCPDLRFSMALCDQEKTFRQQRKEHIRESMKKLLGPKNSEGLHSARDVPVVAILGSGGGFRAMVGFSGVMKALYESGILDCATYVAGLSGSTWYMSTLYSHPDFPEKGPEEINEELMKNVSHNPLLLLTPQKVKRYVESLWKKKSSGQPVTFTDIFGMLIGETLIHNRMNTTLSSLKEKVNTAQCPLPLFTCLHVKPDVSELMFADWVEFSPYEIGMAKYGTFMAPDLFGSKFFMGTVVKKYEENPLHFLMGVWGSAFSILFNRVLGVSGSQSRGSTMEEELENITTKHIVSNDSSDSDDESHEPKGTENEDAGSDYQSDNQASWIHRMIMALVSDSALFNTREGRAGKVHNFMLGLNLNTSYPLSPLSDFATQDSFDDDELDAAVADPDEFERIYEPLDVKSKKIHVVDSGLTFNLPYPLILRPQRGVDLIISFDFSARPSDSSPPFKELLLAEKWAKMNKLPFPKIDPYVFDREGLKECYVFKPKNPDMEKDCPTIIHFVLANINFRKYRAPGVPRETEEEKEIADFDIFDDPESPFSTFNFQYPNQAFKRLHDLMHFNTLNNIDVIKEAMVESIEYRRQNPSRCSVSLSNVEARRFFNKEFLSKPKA
Procedure: (b) Soluble Substrate Assay (LysoPC)
The lipid was resuspended by vortexing 80 mM Hepes pH 7.5, 1 mM EDTA (1.2×final concentration). A typical assay consisted of lipid suspension (85 μl) to which was added consecutively the inhibitor (5 μl in DMSO) and cPLA2, 200 ng in 80 mM Hepes pH 7.5, 2 mM DTT and […]. This assay was conducted by either the manual assay or automated assay protocol described below.

cPLA2 [2] = molecular target: T1, cPLA2; assay: Coumarine assay (7-hydroxycoumarinyl 6-heptenoate hydrolysis); format: biochemical; conditions: 60 μM 7-hydroxycoumarinyl 6-heptenoate; read-out: IC50 (μM) Coumarine
Procedure: 7-hydroxycoumarinyl 6-heptenoate was used as a monomeric substrate for cPLA2 as reported previously (Huang, Z. et al., 1994, Analytical Biochemistry 222, 110-115). Inhibitors were mixed with 200 μL assay buffer (80 mM Hepes, pH 7.5, 1 mM EDTA) containing 60 μM 7-hydroxycoumarinyl 6-heptenoate. The reaction was initiated by adding 4 μg cPLA2 in 50 μL assay buffer. Hydrolysis of the 7-hydroxycoumarinyl 6-heptenoate ester was monitored in a fluorometer by exciting at 360 nm and monitoring emission at 460 nm. Enzyme activity is proportional to the increasein emission at 460 nm per minute. In the presence of a cPLA2 inhibitor, the rate of increase is less.

[3] = tested on: carrageenan-induced footpad edema; assay: Rat carrageenan-induced footpad edema test; format: in vivo; conditions: iv, 1 mg/ml, 5 ml/kg, male Sprague Dawley rats, footpad volume 3 hours after carrageenan, read-out: % inhibition of rat carrageenan-induced footpad edema
Procedure: Compounds of the present invention were also tested for in vivo activity in a rat paw edema test according to the procedure described in Example 89.
Rat Carrageenan-Induced Footpad Edema Test
Each compound was suspended in 0.3 ml absolute ethanol, 0.1 ml Tween-80 and 2.0 ml Dulbecco's PBS (without calcium or magnesium). To this mixture, 0.1 ml 1N NaOH was added. After solution was complete, additional amounts of PBS were added to adjust the concentration to 1 mg/ml. All comounds remained in solution. Compounds were administered i.v. in a volumne of 5 ml/kg to male Sprague Dawley rats at the same time that edema was induced by injection of 0.05 ml of 1% Type IV carrageenan into the hind footpad. Footpad volume was measured before dosing with compound and 3 hours after dosing with carageenan.

O=C(CSCC1Cc2cc(OCc3ccc4ccccc4n3)ccc2N1C(=O)COc1cc(C(F)(F)F)cc(C(F)(F)F)c1)Nc1cc(C(F)(F)F)cc(C(F)(F)F)c1 (stereo not drawn) [Example 50]
IC50 (cPLA2 [1]): 4.4 µM | IC50 (cPLA2 [2]): > 50 µM | inhibition in vivo at 1000 µg/mL, 5 mg/kg [3]: 11.7%

CCC(C)(C)c1ccc(OCC(=O)N2c3ccc(OCc4ccccc4)cc3CC2CSc2ccccc2C(=O)O)c(C(C)(C)CC)c1 (stereo not drawn) [Example 67, 2-(2-(-5-Benzyloxy-1-(2,4-bis(1,1-dimethy)propyl)phenoxyacetyl)indolinyl)methylthiobenzoic Acid]
IC50 (cPLA2 [1]): 0.22 µM | IC50 (cPLA2 [2]): 10 µM | inhibition in vivo at 1000 µg/mL, 5 mg/kg [3]: 17.5%

CCC(C)(C)c1ccc(OCC(=O)N2c3ccc(OCc4ccccc4)cc3CC2CSCC(=O)N(C)c2cc(C(=O)O)ccc2OC)c(C(C)(C)CC)c1 (stereo not drawn) [Example 70, 3-N-Methyl-(2-(-5-benzyloxy-1-(2,4-bis(1,1-dimethy)propyl)phenoxyacetyl)indolinyl)methylthioacetamido-4-methoxybenzoic Acid]
IC50 (cPLA2 [1]): 0.84 µM | IC50 (cPLA2 [2]): 19 µM | inhibition in vivo at 1000 µg/mL, 5 mg/kg [3]: 21.7%
